{"source": "patent US10947242B2", "about": "“[1,2,4]triazolo[1,5and#8208;A]pyrimidine compounds as PDE2 inhibitors” (Janssen Pharmaceutica NV, priority 2016, dated 2021)", "assay_type_in_all_cases": "biochemical", "key": {"[1]": {"target": "T1, Human recombinant PDE2A (hPDE2A) (Homo sapiens, UniProt O00408)", "T1 construct": "His tag (inferred from metal chelate purification); made in house; host or cells: Sf9 insect cells (baculovirus)", "T1 sequence (O00408 whole entry)": "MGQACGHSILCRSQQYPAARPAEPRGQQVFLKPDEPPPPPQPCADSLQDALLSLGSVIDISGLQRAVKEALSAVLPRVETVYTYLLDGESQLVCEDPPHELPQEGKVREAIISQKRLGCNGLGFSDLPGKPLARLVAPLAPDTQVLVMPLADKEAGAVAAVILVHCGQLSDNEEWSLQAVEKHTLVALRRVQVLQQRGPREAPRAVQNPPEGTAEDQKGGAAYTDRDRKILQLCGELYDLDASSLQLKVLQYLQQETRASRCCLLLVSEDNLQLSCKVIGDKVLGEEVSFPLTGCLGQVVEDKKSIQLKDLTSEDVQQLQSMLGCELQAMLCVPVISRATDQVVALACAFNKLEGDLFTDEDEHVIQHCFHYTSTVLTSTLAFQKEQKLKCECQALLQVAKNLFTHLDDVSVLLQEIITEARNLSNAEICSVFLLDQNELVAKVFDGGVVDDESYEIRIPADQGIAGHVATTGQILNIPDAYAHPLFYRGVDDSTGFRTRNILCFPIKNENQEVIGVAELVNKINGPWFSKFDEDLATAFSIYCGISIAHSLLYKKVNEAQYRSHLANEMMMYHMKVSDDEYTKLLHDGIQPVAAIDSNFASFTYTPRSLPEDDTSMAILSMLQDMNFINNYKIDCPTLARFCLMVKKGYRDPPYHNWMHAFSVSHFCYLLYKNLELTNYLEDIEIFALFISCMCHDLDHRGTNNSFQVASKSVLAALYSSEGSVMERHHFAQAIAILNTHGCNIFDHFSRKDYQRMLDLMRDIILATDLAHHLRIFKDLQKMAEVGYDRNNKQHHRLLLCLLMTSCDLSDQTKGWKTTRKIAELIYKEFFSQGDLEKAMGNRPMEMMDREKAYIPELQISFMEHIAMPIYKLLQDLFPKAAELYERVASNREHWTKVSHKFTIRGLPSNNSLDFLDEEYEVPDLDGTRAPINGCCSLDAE", "assay": "In vitro assay PDE2A (SPA, 3H-cGMP hydrolysis)", "details": "for IC50: read-out: hPDE2A pIC50 (converted); for Emax: read-out: hPDE2A Emax"}, "[2]": {"target": "T2, Human recombinant PDE3A (hPDE3A) (Homo sapiens, UniProt Q14432)", "T2 construct": "purchased Scottish Biomedical; host or cells: Sf9 insect cells", "T2 sequence (Q14432 whole entry)": "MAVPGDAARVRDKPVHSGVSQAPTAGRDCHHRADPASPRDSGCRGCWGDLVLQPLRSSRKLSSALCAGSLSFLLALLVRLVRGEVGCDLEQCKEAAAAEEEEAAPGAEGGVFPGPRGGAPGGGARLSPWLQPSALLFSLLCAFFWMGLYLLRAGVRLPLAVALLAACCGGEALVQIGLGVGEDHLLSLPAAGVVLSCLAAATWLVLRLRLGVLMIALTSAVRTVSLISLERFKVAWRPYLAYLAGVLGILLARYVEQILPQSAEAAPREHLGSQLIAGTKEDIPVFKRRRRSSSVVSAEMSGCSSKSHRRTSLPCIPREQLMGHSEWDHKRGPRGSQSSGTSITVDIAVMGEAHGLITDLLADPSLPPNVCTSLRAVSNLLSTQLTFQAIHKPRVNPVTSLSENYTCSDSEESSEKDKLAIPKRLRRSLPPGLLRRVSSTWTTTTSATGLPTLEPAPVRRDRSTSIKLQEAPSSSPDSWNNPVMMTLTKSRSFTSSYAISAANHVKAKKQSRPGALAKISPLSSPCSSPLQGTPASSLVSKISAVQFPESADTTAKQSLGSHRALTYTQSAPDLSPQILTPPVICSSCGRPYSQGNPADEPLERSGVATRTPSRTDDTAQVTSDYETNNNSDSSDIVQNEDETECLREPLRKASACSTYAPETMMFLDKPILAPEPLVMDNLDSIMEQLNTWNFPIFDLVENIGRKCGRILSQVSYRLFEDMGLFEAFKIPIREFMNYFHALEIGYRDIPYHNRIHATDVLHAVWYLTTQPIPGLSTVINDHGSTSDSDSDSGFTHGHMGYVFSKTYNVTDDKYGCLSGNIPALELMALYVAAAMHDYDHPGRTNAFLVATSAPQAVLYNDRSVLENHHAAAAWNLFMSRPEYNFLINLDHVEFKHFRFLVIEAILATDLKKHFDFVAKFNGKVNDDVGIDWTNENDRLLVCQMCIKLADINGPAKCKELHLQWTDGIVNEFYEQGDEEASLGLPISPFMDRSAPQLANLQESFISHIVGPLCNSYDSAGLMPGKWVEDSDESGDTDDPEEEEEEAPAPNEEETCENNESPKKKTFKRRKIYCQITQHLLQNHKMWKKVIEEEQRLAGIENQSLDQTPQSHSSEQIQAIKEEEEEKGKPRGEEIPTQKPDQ", "assay": "In vitro assay PDE3A (SPA, 3H-cAMP hydrolysis);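 further: the method names PDE3A and the table heading PDE3B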", "in_short": "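Human PDE3A, cloned from brain, as partially purified Sf9 lysate. Substrate 0.4 μM cAMP plus [3H]-cAMP (2.4 μCi/ml final) in 50 mM Tris pH 7.8, 8.3 mM MgCl2, 1.7 mM EGTA, 60 min at room temperature, 1% DMSO final. Hydrolysis read by SPA scintillation counting against no-enzyme blanks and DMSO controls.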"}, "[3]": {"target": "T3, Human recombinant PDE10A (hPDE10A) (Homo sapiens, UniProt Q9Y233)", "T3 construct": "His tag (inferred from metal chelate purification); made in house; host or cells: Sf9 insect cells (baculovirus)", "T3 sequence (Q9Y233 267-1055)": "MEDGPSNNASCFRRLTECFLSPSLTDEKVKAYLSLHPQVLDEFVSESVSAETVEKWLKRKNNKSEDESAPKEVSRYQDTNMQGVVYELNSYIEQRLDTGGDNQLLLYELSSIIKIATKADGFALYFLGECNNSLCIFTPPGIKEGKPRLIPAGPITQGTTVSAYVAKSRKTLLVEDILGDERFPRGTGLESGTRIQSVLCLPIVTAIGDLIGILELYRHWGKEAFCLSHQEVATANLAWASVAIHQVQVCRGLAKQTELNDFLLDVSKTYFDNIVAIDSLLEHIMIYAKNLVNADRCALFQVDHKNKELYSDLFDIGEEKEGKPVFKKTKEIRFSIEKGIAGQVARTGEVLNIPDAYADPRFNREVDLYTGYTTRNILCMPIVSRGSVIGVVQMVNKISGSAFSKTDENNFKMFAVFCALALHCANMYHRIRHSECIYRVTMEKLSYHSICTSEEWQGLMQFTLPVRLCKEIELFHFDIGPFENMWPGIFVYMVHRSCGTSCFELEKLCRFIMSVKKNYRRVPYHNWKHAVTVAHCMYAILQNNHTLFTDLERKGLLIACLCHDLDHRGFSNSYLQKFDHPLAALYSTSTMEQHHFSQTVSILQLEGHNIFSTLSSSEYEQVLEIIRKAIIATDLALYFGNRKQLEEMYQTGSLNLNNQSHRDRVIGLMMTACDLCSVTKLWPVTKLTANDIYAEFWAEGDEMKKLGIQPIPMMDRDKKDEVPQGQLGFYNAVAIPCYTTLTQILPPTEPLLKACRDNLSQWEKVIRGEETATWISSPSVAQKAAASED", "assay": "In vitro assay PDE10A, human clone (SPA, 3H-cAMP hydrolysis)", "details": "human clone (h), default", "in_short": "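Human recombinant PDE10A was expressed in Sf9 cells via baculovirus and incubated with compound in 50 mM Tris pH 7.8, 8.3 mM MgCl2, 1.7 mM EGTA. Substrate was 60 nM cAMP plus 0.008 μCi 3H-cAMP for 60 min at room temperature, read by SPA scintillation counting. Controls used 1% DMSO, and blanks omitted enzyme.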"}, "[4]": {"target": "T4, Rat recombinant PDE10A (rPDE10A2) (Rattus norvegicus, UniProt Q9QYJ6)", "T4 construct": "His tag (inferred from metal chelate purification); made in house; host or cells: Sf9 insect cells (baculovirus)", "T4 sequence (Q9QYJ6 1-794)": "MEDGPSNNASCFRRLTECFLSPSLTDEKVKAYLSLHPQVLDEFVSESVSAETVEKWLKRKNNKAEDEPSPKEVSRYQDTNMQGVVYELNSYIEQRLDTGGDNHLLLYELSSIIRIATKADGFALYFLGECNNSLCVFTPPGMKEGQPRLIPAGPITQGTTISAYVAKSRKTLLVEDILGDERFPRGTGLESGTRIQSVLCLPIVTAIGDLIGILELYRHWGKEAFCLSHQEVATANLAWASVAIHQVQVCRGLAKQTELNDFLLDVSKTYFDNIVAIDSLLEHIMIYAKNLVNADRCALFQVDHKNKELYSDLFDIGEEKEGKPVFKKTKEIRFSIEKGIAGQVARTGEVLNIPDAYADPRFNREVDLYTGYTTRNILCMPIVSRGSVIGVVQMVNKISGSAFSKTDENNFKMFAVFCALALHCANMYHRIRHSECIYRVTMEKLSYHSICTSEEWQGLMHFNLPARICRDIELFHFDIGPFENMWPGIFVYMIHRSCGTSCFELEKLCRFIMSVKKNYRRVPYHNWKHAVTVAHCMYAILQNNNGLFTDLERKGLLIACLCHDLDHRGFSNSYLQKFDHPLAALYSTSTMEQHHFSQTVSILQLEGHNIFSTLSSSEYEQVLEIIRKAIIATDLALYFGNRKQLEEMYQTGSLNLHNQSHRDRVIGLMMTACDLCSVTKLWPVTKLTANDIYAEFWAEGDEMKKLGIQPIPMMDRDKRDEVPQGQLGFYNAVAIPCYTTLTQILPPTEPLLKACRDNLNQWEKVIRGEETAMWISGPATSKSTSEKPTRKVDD", "assay": "In vitro assay PDE10A, rat clone (SPA, 3H-cAMP hydrolysis)", "description": "Rat recombinant PDE10A (rPDE10A2) was expressed in Sf9 cells using a recombinant rPDE10A baculovirus construct. Cells were harvested after 48 h of infection and the rPDE10A protein was purified by metal chelate chromatography on Ni-sepharose 6FF. Tested compounds were dissolved and diluted in 100% DMSO to a concentration 100 fold of the final concentration in the assay. Human recombinant PDE10A ([…]) was expressed in Sf9 cells using a recombinant hPDE10A baculovirus that was made and amplified in house. Cells were harvested after 72 h of infection and the hPDE10A protein was purified by metal chelate chromatography on Ni-sepharose. Compound dilutions (0.4 μl) were added in 384 well plates to 20 μl of incubation buffer (50 mM Tris pH 7.8, 8.3 mM MgCl2, 1.7 mM EGTA). 10 μl of rPDE10A or hPDE10A enzyme in incubation buffer was added and the reaction was started by addition of 10 μl substrate to a final concentration of 60 nM cAMP and 0.008 μCi ^3H-cAMP. The reaction was incubated for 60 minutes at room temperature. After incubation, the reaction was stopped with 20 μl of stop solution consisting of 17.8 mg/ml PDE SPA (scintillation proximity assay) beads. After sedimentation of the beads during 30 minutes the radioactivity was measured in a Perkin Elmer Topcount scintillation counter and results were expressed as cpm. For blanc values the enzyme was omitted from the reaction and replaced by incubation buffer. Control values were obtained by addition of a final concentration of 1% DMSO instead of compound. A best fit curve is fitted by a minimum sum of squares method to the plot of % of control value subtracted with blanc value versus compound concentration and the half maximal inhibitory concentration (IC50) value is derived from this curve."}}, "note": "Like-named read-outs stand apart in the source and are kept apart here.", "data": [{"smiles": "C[C@@H]1CCN(C(=O)c2ccc3c(ccn3CCF)c2)C[C@H]1c1cc(C(F)F)nc2ncnn12", "note": "[Compound 89]", "values": [{"measurement": "IC50", "setting": "[1]; human recombinant PDE2A, 10 μM cGMP substrate", "result": 0.229, "unit": "nM"}, {"measurement": "Emax", "setting": "[1]; human recombinant PDE2A", "result": 104, "unit": "%"}, {"measurement": "Emax", "setting": "[1]", "result": 104, "unit": "%"}, {"measurement": "IC50", "setting": "[1]", "result": 0.229, "unit": "nM"}, {"measurement": "IC50", "setting": "[2]; hPDE3B pIC50, read-out: pIC50 (converted)", "result": 145, "unit": "nM"}, {"measurement": "Emax", "setting": "[2]; read-out: hPDE3B Emax, read-out: Emax", "result": 96, "unit": "%"}, {"measurement": "Emax", "setting": "[3]; read-out: hPDE10A2 Emax", "result": 101, "unit": "%"}, {"measurement": "IC50", "setting": "[3]; read-out: hPDE10A2 pIC50 (converted)", "result": 20.9, "unit": "nM"}, {"measurement": "Emax", "setting": "[4]; rat clone (r)", "result": 98, "unit": "%"}, {"measurement": "IC50", "setting": "[4]; rat clone (r), read-out: rPDE10A2 pIC50 (converted)", "result": 12, "unit": "nM"}, {"measurement": "rPDE10A2 pIC50", "setting": "[4]; rat clone, indicated as (r)", "result": "7.92 (r)"}]}]}
